Source: US20150216167A1 (Heinrich Heine Universitat Dusseldorf, priority 2011, published 2015)

Key:
[1] = molecular target: T1, C4-PEPC (PEP carboxylase from F. trinervia) (Flaveria trinervia, UniProt P30694); test: Spectrophotometric coupled assay with malate dehydrogenase, purified PEP carboxylases; type: biochemical; settings: C4 (F. trinervia) versus C3 (F. pringlei) enzyme
T1 construct: histidine tag; made in house; host or cells: E. coli
T1 sequence (P30694 1-966): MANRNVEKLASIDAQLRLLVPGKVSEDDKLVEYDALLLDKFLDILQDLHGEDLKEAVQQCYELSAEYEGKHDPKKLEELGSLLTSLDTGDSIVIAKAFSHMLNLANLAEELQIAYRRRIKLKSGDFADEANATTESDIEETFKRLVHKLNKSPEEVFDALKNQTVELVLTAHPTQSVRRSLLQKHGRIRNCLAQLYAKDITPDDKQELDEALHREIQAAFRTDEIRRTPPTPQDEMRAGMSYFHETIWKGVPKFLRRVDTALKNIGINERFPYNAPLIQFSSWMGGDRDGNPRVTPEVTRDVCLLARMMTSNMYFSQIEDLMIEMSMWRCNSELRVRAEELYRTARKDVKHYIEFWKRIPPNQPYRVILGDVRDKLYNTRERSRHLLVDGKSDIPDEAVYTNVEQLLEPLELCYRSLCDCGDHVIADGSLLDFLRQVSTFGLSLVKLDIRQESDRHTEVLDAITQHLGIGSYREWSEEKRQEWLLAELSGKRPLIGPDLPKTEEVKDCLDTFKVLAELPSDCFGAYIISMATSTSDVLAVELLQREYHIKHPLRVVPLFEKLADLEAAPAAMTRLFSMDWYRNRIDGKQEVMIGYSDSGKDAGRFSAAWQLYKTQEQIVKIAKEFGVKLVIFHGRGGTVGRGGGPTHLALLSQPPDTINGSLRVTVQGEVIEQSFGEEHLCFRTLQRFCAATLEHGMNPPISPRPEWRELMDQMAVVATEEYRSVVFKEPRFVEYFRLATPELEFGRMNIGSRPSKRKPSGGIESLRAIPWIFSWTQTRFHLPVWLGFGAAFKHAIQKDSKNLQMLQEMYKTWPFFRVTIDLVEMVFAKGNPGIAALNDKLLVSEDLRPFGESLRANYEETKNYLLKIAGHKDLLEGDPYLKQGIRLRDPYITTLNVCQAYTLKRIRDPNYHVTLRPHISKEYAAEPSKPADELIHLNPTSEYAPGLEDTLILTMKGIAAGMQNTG
Excerpt: (§1) Inhibition of purified PEP carboxylases from F. pringlei and F. trinervia by compounds selected from the VDS was monitored by a spectrophotometric coupled assay with malate dehydrogenase which reduces the oxaloacetate formed by PEP carboxylase to malate. The simultaneous oxidation of NADH is followed at 340 nm with standard optical equipment. The concentration of the inhibitors selected from the VDS was varied in the coupled assay to determine the half maximal inhibitory concentration (IC50).
as §1, with “(1050).” for “(IC50).”

[2] = system: PEP carboxylase; settings: Pairoba et al. (1996); cited from earlier work
[3] = high clog values; cited from earlier work
[4] = system: bile salt hydrolase; settings: cited from earlier work
[5] = system: pyruvate phosphate dikinase (PPDK); settings: cited from earlier work

| Compound | inhibition of PEP carboxylase from C4 plant Amaranthus viridis [2] | further results |
| --- | --- | --- |
| Oc1cc(O)c2c(c1)O[C@H](c1ccc(O)c(O)c1)[C@@H](O)C2 [compound 1, (2R,3S)-2-(3,4-dihydroxyphenyl)-3,4-dihydro-2H-chromene-3,5,7-triol] | – | Selective Inhibition of a C4-PEPC ([1]; measured at 50 micromolar and 500 micromolar, FIG. 2): Selective Inhibition |
| Nc1nc2ncc(CNc3ccc(C(=O)N[C@@H](CCC(=O)O)C(=O)O)cc3)nc2c(=O)[nH]1 [compound 4, Folic Acid] | – | Selective Inhibition of a C4-PEPC ([1]; measured at 0.025 mM, FIG. 3): Selective Inhibition |
| O=c1c(O)c(-c2ccc(O)c(O)c2)oc2cc(O)ccc12 [fisetin] | inhibited | – |
| C=C1CCC[C@H]2[C@](C)(CC3=C(O)C(=O)C=C(OC)C3=O)[C@@H](C)CC[C@]12C [ilimaquinone] | – | solubility in water [3]: low solubility in water |
| O=c1c(O)c(-c2ccc(O)cc2)oc2cc(O)cc(O)c12 [kaempferol] | inhibited | – |
| O=c1c(O)c(-c2ccc(O)cc2O)oc2cc(O)cc(O)c12 [morin] | inhibited | – |
| O=c1c(O)c(-c2cc(O)c(O)c(O)c2)oc2cc(O)cc(O)c12 [myricetin] | inhibited | – |
| O=c1c(O)c(-c2ccc(O)c(O)c2)oc2cc(O)cc(O)c12 [quercetin] | inhibited | – |
| C/C=C(\C)c1cc(O)c(C)c2c1Oc1cc(O)cc(C)c1C(=O)O2 [unguinol] | – | inhibits the enzyme bile salt hydrolase [4]: inhibits; selective inhibitors of PPDK ([5]; PPDK from C4 plants maize, millet and proso millet): selective inhibitors; IC50 ([5]; isolated enzyme, read-out: half maximal inhibitory concentration (1050)): 40 µM |
| baicalein/baicalin | inhibited | – |
